From ChEMBL document CHEMBL5346903, “Discovery of novel and bioavailable histone deacetylases and cyclin-dependent kinases dual inhibitor to impair the stemness of leukemia cells” (Eur J Med Chem, 2023)
Blank lines part the entries; values can stand above or below the molecule they belong to.

Key:
[1] = system: U-937; assay: Induction of apoptosis in human U-937 cells assessed as late apoptotic cells at 5 uM incubated for 48 hrs by annexin V-FITC/PI satining based flow cytometry (reference value: 4.23 %); format: functional
[2] = system: U-937; assay: Induction of apoptosis in human U-937 cells assessed as early apoptotic cells at 5 uM incubated for 48 hrs by annexin V-FITC/PI satining based flow cytometry (reference value: 1.93 %); format: functional
[3] = system: HL-60; assay: Induction of apoptosis in human HL-60 cells assessed as late apoptotic cells at 0.6 uM incubated for 48 hrs by annexin V-FITC/PI satining based flow cytometry (reference value: 2.83 %); format: functional
[4] = system: U-937; assay: Induction of apoptosis in human U-937 cells assessed as viable cells at 5 uM incubated for 48 hrs by annexin V-FITC/PI satining based flow cytometry (reference value: 93.7 %); format: functional; conditions: read-out: Activity
[5] = system: HL-60; assay: Induction of apoptosis in human HL-60 cells assessed as viable cells at 2.5 uM incubated for 48 hrs by annexin V-FITC/PI satining based flow cytometry (reference value: 94.7 %); format: functional; conditions: read-out: Activity
[6] = system: HL-60; assay: Induction of differentiation in human HL-60 cells assessed as increase in CD11b positive cells at 2.5 uM incubated for 24 hrs by FITC staining based flow cytometry (reference value: 1.12 %); format: functional
[7] = system: HL-60; assay: Induction of apoptosis in human HL-60 cells assessed as early apoptotic cells at 0.6 uM incubated for 48 hrs by annexin V-FITC/PI satining based flow cytometry (reference value: 2.4 %); format: functional
[8] = system: HL-60; assay: Induction of apoptosis in human HL-60 cells assessed as late apoptotic cells at 1.2 uM incubated for 48 hrs by annexin V-FITC/PI satining based flow cytometry (reference value: 2.83 %); format: functional
[9] = system: U-937; assay: Induction of apoptosis in human U-937 cells assessed as viable cells at 0.6 uM incubated for 48 hrs by annexin V-FITC/PI satining based flow cytometry (reference value: 93.7 %); format: functional; conditions: read-out: Activity
[10] = system: Kasumi 1; assay: Cytotoxicity against human Kasumi 1 cells assessed as CD34positive CD38negative leukemic stem cell-like cells sub-population at 0.5 uM incubated for 24 hrs by APC/FITC satining based flow cytometry (reference value: 95.8 %); format: functional
[11] = Cytotoxicity against human Kasumi 1 cells assessed as CD34positive CD38negative leukemic stem cell-like cells sub-population at 1 uM incubated for 24 hrs by APC/FITC satining based flow cytometry (reference value: 95.8 %); format: functional
[12] = target: CDK12/Cyclin K (Homo sapiens) (UniProt O75909+Q9NYV4); assay: Inhibition of CDK12/cyclinK (unknown origin) at 100 nM preincubated for 20 mins followed by [gamma-33P]ATP addition measured after 120 mins in presence of ATP by Hot-SpotSM kinase assay relative to control; format: protein-complex assay; conditions: time 140.0 min
[13] = target: Histone deacetylase 3 (Homo sapiens, UniProt O15379); assay: Inhibition of recombinant human HDAC3 using HDAC substrate incubated for 30 mins by fluorescence based assay
Sequence of Histone deacetylase 3 (O15379 whole entry): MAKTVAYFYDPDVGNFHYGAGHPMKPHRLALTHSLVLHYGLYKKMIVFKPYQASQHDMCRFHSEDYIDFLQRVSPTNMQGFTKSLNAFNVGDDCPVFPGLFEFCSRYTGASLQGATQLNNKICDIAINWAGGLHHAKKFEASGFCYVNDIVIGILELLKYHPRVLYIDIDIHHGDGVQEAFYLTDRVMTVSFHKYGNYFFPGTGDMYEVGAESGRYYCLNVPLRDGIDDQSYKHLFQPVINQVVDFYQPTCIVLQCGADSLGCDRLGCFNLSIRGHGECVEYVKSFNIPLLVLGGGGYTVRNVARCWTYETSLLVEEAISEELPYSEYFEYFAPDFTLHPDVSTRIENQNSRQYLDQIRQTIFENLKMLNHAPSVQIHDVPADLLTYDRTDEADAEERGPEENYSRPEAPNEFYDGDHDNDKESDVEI

[14] = system: U-937; assay: Induction of differentiation in human U-937 cells assessed as increase in CD11b positive cells at 2 uM incubated for 48 hrs by FITC staining based flow cytometry (reference value: 2.72 %); format: functional
[15] = system: U-937; assay: Induction of apoptosis in human U-937 cells assessed as necrotic cells at 1 uM incubated for 48 hrs by annexin V-FITC/PI satining based flow cytometry (reference value: 1.96 %); format: functional
[16] = target: Histone deacetylase (Homo sapiens) (UniProt Q13547+O15379+Q9UBN7+Q92769+Q9UQL6+Q8WUI4+Q9BY41+Q96DB2+P56524+Q9UKV0+Q969S8); assay: Inhibition of HDAC in human nuclear extract using Ac-Arg-Gly-Lys(Ac)-AMC as substrate at 1 uM incubated overnight by fluorescence based assay relative to control; format: subcellular; conditions: HeLa, Nucleus
[17] = target: Histone deacetylase 8 (Homo sapiens, UniProt Q9BY41); assay: Inhibition of recombinant human HDAC8 using HDAC substrate incubated for 30 mins by fluorescence based assay
Sequence of Histone deacetylase 8 (Q9BY41 whole entry): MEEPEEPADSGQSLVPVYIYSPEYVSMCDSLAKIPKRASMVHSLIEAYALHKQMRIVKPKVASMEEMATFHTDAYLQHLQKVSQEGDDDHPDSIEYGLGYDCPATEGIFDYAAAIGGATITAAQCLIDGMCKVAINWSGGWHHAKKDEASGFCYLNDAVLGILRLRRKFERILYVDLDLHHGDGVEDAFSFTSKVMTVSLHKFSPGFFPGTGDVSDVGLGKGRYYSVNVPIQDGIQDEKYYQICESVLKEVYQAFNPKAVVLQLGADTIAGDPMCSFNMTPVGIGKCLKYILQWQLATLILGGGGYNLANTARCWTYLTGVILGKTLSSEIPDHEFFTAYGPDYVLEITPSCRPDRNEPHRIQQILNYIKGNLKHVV

[18] = system: U-937; assay: Induction of differentiation in human U-937 cells assessed as increase in CD11b positive cells at 1 uM incubated for 48 hrs by FITC staining based flow cytometry (reference value: 2.72 %); format: functional
[19] = Bioavailability in Sprague-Dawley rat at 25 mg/kg, po measured upto 8 hrs by LC/MS-MS analysis; format: ADME, organism-based; conditions: in vivo
[20] = target: Histone deacetylase 4 (Homo sapiens, UniProt P56524); assay: Inhibition of recombinant human HDAC4 using HDAC substrate incubated for 30 mins by fluorescence based assay
Sequence of Histone deacetylase 4 (P56524 whole entry): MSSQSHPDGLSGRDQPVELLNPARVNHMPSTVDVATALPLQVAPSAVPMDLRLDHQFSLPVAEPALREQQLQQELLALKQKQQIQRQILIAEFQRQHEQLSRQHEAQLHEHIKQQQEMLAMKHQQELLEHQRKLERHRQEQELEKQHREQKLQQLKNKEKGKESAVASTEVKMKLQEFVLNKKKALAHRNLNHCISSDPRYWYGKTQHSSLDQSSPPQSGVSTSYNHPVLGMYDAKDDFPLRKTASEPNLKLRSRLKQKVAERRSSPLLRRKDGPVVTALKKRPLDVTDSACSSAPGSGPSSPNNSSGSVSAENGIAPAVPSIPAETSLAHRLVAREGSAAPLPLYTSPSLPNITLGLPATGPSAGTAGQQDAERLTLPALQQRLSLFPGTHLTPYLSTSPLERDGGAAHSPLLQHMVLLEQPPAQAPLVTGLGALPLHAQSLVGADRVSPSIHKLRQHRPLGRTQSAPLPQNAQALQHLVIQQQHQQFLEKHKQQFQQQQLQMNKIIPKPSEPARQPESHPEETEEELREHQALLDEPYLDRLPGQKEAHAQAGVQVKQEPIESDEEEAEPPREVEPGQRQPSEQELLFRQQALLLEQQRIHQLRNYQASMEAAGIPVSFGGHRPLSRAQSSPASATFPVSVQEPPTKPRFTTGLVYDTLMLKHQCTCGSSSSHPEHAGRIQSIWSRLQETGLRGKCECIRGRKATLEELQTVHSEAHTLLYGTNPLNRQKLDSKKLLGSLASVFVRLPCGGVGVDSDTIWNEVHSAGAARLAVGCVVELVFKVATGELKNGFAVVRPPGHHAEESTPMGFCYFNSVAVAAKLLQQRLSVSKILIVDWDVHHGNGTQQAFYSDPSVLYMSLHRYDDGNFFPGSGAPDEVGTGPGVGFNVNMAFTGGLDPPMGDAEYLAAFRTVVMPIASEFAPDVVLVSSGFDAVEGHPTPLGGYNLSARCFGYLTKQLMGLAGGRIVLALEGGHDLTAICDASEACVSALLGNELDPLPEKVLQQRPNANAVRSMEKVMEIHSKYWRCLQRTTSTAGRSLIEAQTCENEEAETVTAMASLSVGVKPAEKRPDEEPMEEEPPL

[21] = target: CDK3/Cyclin E (Homo sapiens) (UniProt P24864+Q00526); assay: Inhibition of CDK3/cyclinE1 (unknown origin) at 100 nM preincubated for 20 mins followed by [gamma-33P]ATP addition measured after 120 mins in presence of ATP by Hot-SpotSM kinase assay relative to control; format: protein-complex assay; conditions: time 140.0 min
Sequence of CDK3/Cyclin E (Homo sapiens) (P24864 whole entry, looked up): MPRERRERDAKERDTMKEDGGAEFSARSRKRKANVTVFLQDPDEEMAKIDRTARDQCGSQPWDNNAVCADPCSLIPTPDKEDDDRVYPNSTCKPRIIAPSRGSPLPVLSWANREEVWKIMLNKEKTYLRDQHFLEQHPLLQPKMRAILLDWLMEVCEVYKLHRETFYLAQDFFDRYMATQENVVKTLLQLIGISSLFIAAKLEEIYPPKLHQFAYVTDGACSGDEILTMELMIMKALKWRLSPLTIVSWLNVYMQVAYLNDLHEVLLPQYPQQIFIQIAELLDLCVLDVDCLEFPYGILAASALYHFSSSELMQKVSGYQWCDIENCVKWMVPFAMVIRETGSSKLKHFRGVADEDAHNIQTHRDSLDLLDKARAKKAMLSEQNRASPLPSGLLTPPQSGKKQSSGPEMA
Sequence of CDK3/Cyclin E (Homo sapiens) (Q00526 whole entry, looked up): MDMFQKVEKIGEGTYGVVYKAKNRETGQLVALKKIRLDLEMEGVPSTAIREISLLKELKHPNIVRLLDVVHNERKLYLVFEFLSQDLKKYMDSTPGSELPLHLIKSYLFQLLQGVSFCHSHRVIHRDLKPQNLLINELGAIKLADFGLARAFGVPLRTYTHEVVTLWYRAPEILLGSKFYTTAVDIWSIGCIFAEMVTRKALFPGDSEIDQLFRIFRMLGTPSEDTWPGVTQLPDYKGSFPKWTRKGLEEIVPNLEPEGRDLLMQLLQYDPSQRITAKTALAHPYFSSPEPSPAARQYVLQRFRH

[22] = target: Histone deacetylase 1 (Homo sapiens, UniProt Q13547); assay: Inhibition of recombinant human HDAC1 using HDAC substrate incubated for 30 mins by fluorescence based assay
Sequence of Histone deacetylase 1 (Q13547 whole entry): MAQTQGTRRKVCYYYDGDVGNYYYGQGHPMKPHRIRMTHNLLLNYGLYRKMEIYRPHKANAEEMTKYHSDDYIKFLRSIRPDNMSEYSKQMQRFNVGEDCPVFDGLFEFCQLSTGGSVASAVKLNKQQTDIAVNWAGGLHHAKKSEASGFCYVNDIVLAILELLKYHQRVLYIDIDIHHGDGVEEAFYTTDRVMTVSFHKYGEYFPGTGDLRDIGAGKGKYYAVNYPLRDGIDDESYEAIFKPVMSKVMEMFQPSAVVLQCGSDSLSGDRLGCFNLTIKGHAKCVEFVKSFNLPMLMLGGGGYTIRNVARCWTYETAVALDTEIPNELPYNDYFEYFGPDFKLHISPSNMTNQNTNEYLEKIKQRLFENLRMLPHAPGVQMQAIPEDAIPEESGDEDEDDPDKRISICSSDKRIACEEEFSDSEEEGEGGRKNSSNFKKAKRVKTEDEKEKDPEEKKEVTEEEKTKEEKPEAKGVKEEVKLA

[23] = target: Histone deacetylase 7 (Homo sapiens, UniProt Q8WUI4); assay: Inhibition of recombinant human HDAC7 using HDAC substrate incubated for 30 mins by fluorescence based assay
Sequence of Histone deacetylase 7 (Q8WUI4 whole entry): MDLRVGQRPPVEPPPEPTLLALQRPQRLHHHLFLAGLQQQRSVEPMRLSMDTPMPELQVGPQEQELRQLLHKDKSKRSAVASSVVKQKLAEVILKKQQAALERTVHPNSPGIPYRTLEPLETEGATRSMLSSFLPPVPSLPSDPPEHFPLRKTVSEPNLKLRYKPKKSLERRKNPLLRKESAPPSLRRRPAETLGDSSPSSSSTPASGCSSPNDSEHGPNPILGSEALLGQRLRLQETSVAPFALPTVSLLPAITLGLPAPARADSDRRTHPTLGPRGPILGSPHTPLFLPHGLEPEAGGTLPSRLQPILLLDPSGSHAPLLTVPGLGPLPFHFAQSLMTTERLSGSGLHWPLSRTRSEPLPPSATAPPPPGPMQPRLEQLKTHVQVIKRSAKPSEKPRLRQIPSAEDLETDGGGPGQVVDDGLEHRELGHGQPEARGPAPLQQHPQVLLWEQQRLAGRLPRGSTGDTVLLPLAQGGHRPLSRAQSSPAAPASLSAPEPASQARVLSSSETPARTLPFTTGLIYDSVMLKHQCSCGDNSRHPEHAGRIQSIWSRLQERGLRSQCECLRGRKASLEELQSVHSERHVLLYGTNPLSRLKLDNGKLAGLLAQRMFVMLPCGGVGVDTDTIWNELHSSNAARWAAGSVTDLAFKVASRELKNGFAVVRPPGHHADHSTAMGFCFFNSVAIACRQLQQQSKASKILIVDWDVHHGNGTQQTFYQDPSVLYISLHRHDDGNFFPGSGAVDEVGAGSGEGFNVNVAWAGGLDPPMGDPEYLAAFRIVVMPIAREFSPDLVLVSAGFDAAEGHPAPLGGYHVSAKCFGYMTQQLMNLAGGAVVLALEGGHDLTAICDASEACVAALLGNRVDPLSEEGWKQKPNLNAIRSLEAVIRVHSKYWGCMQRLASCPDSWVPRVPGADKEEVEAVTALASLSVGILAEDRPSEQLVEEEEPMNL

[24] = target: CDK2/Cyclin A2 (Homo sapiens) (UniProt P24941+P20248); conditions: dose 100.0 nM, time 140.0 min
[25] = Antiproliferative activity against HEK293T cells incubated for 72 hrs by CCK8 assay; format: toxicity, cell-based, HEK-293T; conditions: human
[26] = system: U-937; assay: Induction of apoptosis in human U-937 cells assessed as late apoptotic cells at 0.2 uM incubated for 48 hrs by annexin V-FITC/PI satining based flow cytometry (reference value: 7.10 %); format: functional
[27] = system: HL-60; assay: Induction of differentiation in human HL-60 cells assessed as increase in CD11b positive cells at 1 uM incubated for 24 hrs by FITC staining based flow cytometry (reference value: 1.45 %); format: functional
[28] = system: U-937; assay: Induction of apoptosis in human U-937 cells assessed as viable cells at 2 uM incubated for 48 hrs by annexin V-FITC/PI satining based flow cytometry (reference value: 90.0 %); format: functional; conditions: read-out: Activity
[29] = system: U-937; assay: Induction of differentiation in human U-937 cells assessed as increase in CD11b positive cells at 1.5 uM incubated for 48 hrs by FITC staining based flow cytometry (reference value: 2.72 %); format: functional
[30] = system: U-937; assay: Induction of apoptosis in human U-937 cells assessed as late apoptotic cells at 0.5 uM incubated for 48 hrs by annexin V-FITC/PI satining based flow cytometry (reference value: 7.10 %); format: functional
[31] = system: HL-60; assay: Induction of differentiation in human HL-60 cells assessed as increase in CD11b positive cells at 1.5 uM incubated for 24 hrs by FITC staining based flow cytometry (reference value: 1.45 %); format: functional
[32] = system: U-937; assay: Induction of apoptosis in human U-937 cells assessed as necrotic cells at 2 uM incubated for 48 hrs by annexin V-FITC/PI satining based flow cytometry (reference value: 1.96 %); format: functional

Compound: Nc1cc(F)ccc1NC(=O)c1ccc(CNC(=O)/C=C/c2cccnc2)cc1 [TUCIDINOSTAT]
Activity [1]: 22.7%
Activity [2]: 4.66%
Activity [3]: 2.27%
viability at 5 µM [4]: 72.6%
viability at 2.5 µM [5]: 56.1%
Activity [6]: 53.5%
Activity [7]: 2.52%
Activity [8]: 11.5%
viability at 0.6 µM [9]: 93.5%
Activity [10]: 93.9%
Activity [11]: 88.5%

inhibition [12]: 98.8%
IC50 [13]: 40.4 nM
inhibition [16]: 100%
IC50 [17]: 1010 nM
bioavailability [19]: 56.7%
IC50 [20]: > 1000 nM
inhibition [21]: 36.3%
IC50 [22]: 35.7 nM
IC50 [23]: > 1000 nM
inhibition [24]: 69.1%
Compound: Nc1ccccc1NC(=O)c1ccc(NC(=O)c2n[nH]cc2NC(=O)c2c(Cl)cccc2Cl)cc1
Activity [14]: 18.5%
Activity [15]: 15.1%
Activity [18]: 6%
IC50 at 72 h [25]: > 20000 nM
Activity [26]: 8.15%
Activity [27]: 37.6%
viability at 2 µM [28]: 5.82%
Activity [29]: 16%
Activity [30]: 14%
Activity [31]: 50.9%
Activity [32]: 3.3%
